# Experimental data as given in patent US20240239775A1, “FXR REGULATOR, PREPARATION METHOD THEREFOR, PHARMACEUTICAL COMPOSITION THEREOF AND USE THEREOF” (QINGDAO RUIJI MEDICAL TECHNOLOGY CO., LTD., priority 2021, published 2024).
# Molecular target: T1, FXR (Homo sapiens, UniProt Q96RI1)
# T1 construct: 5 μL of 20 nM FXR-LBD Complete Coregulator buffer G; purchased ThermoFisher PV4833
# T1 sequence (Q96RI1 262-486 limits assumed): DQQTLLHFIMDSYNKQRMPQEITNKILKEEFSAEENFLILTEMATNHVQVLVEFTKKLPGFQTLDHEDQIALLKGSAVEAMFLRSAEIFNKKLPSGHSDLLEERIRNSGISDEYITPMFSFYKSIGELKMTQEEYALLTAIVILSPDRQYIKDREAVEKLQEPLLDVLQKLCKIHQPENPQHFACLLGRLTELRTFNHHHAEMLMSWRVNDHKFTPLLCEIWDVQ
# Assay: FXR antagonist screening by TR-FRET (LanthaScreen TR-FRET FXR co-activation assay kit)
# Format: biochemical
# Conditions: Table 1.1, FXR antagonistic activity; TR-FRET with CDCA; geometric means of at least two independent runs
# Description: FXR activity was evaluated by time-resolved fluorescence resonance energy transfer (TR-FRET) assay, using LanthaScreen™ TR-FRET FXR co-activation assay kit (ThermoFisher, Cat. PV4833). For agonist screening, 10 μL of Complete Coregulator buffer G containing the corresponding concentration of the compound to be tested, 5 μL of 20 nM FXR-LBD Complete Coregulator buffer G, and 5 μL of 2.0 μM Fluorescein-SRC2-2/20 nM Tb-anti-GST antibody Complete Coregulator buffer G were added to each well of a 384-well black plate (Coring) in sequence. […] Three duplicate wells were set up for each compound, with CDCA as the positive compound and DMSO as the solvent control. For antagonist screening, 5 μL of Complete Coregulator buffer G containing the corresponding concentration of the compound to be tested, 5 μL of 20 nM FXR-LBD Complete Coregulator buffer G, 5 μL of 200 μM CDCA FXR-LBD Complete Coregulator buffer G, and 5 μL of 2.0 μM Fluorescein-SRC2-2/20 nM Tb-anti-GST antibody Complete Coregulator buffer G were added to each well of a 384-well black plate (Coring) in sequence and incubated at room temperature for 10 h. Following operations were the same as those for agonist screening
row,SMILES,IC50 [µM]
1,"CCOC(=O)c1oc2ccc(S(=O)(=O)N(CCc3ccccc3)Cc3ccccc3)cc2c1C [Example F27-S8, ethyl 5-(N-benzyl-N-phenethylsulfamoyl)-3-methylbenzofuran-2-carboxylate]",50 to 100
2,"Cc1c(C(=O)O)oc2ccc(S(=O)(=O)N(CCc3ccccc3)c3ccccc3)cc12 [Example F27-S10, 3-methyl-5-(N-phenethyl-N-phenylsulfamoyl)benzofuran-2-carboxylic acid]",50 to 100
3,"Cc1c(C(=O)O)oc2ccc(S(=O)(=O)N(CCc3ccccc3)CCc3ccccc3)cc12 [Example F27-S13, 3-methyl-5-(N,N-diphenylethylsulfamoyl)benzofuran-2-carboxylic acid]",10 to 50
4,"Cc1c(C(=O)O)oc2ccc(S(=O)(=O)N(CCc3ccccc3)Cc3ccc(Br)cc3)cc12 [Example F27-S30, 3-methyl-5-(N-(4-bromobenzyl)-N-phenethylsulfamoyl)benzofuran-2-carboxylic acid]",10 to 50
5,"Cc1c(C(=O)O)oc2ccc(S(=O)(=O)N(CCc3ccccc3)Cc3ccc(C(=O)OC(C)(C)C)cc3)cc12 [Example F27-S40, 3-methyl-5-(N-(4-(tert-butoxycarbonyl)benzyl)-N-phenethylsulfamoyl)benzofuran-2-carboxylic acid]",10 to 50
6,"Cc1c(C(=O)O)oc2ccc(S(=O)(=O)N(CCc3ccccc3)Cc3cccc4cccnc34)cc12 [Example F27-S44, 3-methyl-5-(N-(quinolin-8-ylmethyl)-N-phenethylsulfamoyl)benzofuran-2-carboxylic acid]",10 to 50
7,"Cc1c(C(=O)O)oc2ccc(S(=O)(=O)N(CCc3ccccc3)c3ccc(N4CCN(S(C)(=O)=O)CC4)cc3)cc12 [Example F27-S72, 3-methyl-5-(N-(4-(4-(methylsulfonyl)piperazin-1-yl)phenyl)-N-phenethylsulfamoyl)benzofuran-2-carboxylic acid]",50 to 100
8,"Cc1c(C(=O)O)oc2ccc(S(=O)(=O)N(CCc3ccccc3)Cc3ccc(N4CCN(C)CC4)cc3)cc12 [Example F27-S80, 3-methyl-5-(N-(4-(4-methylpiperazin-1-yl)benzyl)-N-phenethylsulfamoyl)benzofuran-2-carboxylic acid]",50 to 100
9,"Cc1c(C(=O)O)oc2ccc(S(=O)(=O)N(CCc3ccccc3)Cc3ccc(N4CCN(C(=O)OC(C)(C)C)CC4)cc3)cc12 [Example F27-S81, 3-methyl-5-(N-(4-(4-(tert-butoxycarbonyl)piperazin-1-yl)benzyl)-N-phenethylsulfamoyl)benzofuran-2-carboxylic acid]",10 to 50
10,Cc1c(C(=O)O)oc2ccc(S(=O)(=O)N(CCc3ccccc3)Cc3ccc(Oc4ccccc4)cc3)cc12 [Example F27-S86],10 to 50
11,"Cc1c(C(=O)O)oc2ccc(S(=O)(=O)N(CCc3ccccc3)Cc3ccccc3N3CCN(C(=O)OC(C)(C)C)CC3)cc12 [Example F27-S87, 3-methyl-5-(N-(2-(4-(tert-butoxycarbonyl)piperazin-1-yl)benzyl)-N-phenethylsulfamoyl)benzofuran-2-carboxylic acid]",0.1 to 10

# Same assay, conditions: Table 1.2, FXR antagonistic activity; TR-FRET with CDCA; geometric means of at least two independent runs
row,SMILES,IC50 [µM]
1,"Cc1ccc(C(=O)N2CCN(c3ccccc3N(CCc3ccccc3)S(=O)(=O)c3ccc4oc(C(=O)O)c(C)c4c3)CC2)cc1 [Example F27-S106, 3-methyl-5-(N-(2-(4-(4-methylbenzoyl)piperazin-1-yl)phenyl)-N-phenethylsulfamoyl)benzofuran-2-carboxylic acid]",0.1 to 10
2,"Cc1ccccc1C(=O)N1CCN(c2ccccc2N(CCc2ccccc2)S(=O)(=O)c2ccc3oc(C(=O)O)c(C)c3c2)CC1 [Example F27-S107, 3-methyl-5-(N-(2-(4-(2-methylbenzoyl)piperazin-1-yl)phenyl)-N-phenethylsulfamoyl)benzofuran-2-carboxylic acid]",0.1 to 10
3,"Cc1cccc(C(=O)N2CCN(c3ccccc3N(CCc3ccccc3)S(=O)(=O)c3ccc4oc(C(=O)O)c(C)c4c3)CC2)c1 [Example F27-S108, 3-methyl-5-(N-(2-(4-(3-methylbenzoyl)piperazin-1-yl)phenyl)-N-phenethylsulfamoyl)benzofuran-2-carboxylic acid]",0.1 to 10
4,"CC(=O)Nc1ccc(C(=O)N2CCN(c3ccccc3N(CCc3ccccc3)S(=O)(=O)c3ccc4oc(C(=O)O)c(C)c4c3)CC2)cc1 [Example F27-S109, 5-(N-(2-(4-(4-acetamidobenzoyl)piperazin-1-yl)phenyl)-N-phenethylsulfamoyl)-3-methylbenzofuran-2-carboxylic acid]",0.1 to 10
5,"Cc1c(C(=O)O)oc2ccc(S(=O)(=O)N(CCc3ccccc3)c3ccccc3N3CCN(C(=O)c4ccc(C(F)(F)F)cc4)CC3)cc12 [Example F27-S110, 3-methyl-5-(N-phenethyl-N-(2-(4-(4-(trifluoromethyl)benzoyl)piperazin-1-yl)phenyl)sulfamoyl)benzofuran-2-carboxylic acid]",0.1 to 10
6,"Cc1c(C(=O)O)oc2ccc(S(=O)(=O)N(CCc3ccccc3)c3ccccc3N3CCN(C(=O)c4ccc(F)cc4)CC3)cc12 [Example F27-S112, 5-(N-(2-(4-(4-fluorobenzoyl)piperazin-1-yl)phenyl)-N-phenethylsulfamoyl)-3-methylbenzofuran-2-carboxylic acid]",0.1 to 10
7,Cc1c(C(=O)O)oc2ccc(S(=O)(=O)N(CCc3ccccc3)c3ccccc3N3CCN(C(=O)c4ccc(NC(=O)OC(C)(C)C)cc4)CC3)cc12 [Example F27-S113],0.1 to 10
8,"Cc1c(C(=O)O)oc2ccc(S(=O)(=O)N(CCc3ccccc3)c3ccccc3N3CCN(C(=O)c4ccc([N+](=O)[O-])cc4)CC3)cc12 [Example F27-S114, 3-methyl-5-(N-(2-(4-(4-nitrobenzoyl)piperazin-1-yl)phenyl)-N-phenethylsulfamoyl)benzofuran-2-carboxylic acid]",0.1 to 10
9,"CC(=O)c1ccc(C(=O)N2CCN(c3ccccc3N(CCc3ccccc3)S(=O)(=O)c3ccc4oc(C(=O)O)c(C)c4c3)CC2)cc1 [Example F27-S115, 5-(N-(2-(4-(4-acetylbenzoyl)piperazin-1-yl)phenyl)-N-phenethylsulfamoyl)-3-methylbenzofuran-2-carboxylic acid]",0.1 to 10
10,"Cc1c(C(=O)O)oc2ccc(S(=O)(=O)N(CCc3ccccc3)c3ccccc3N3CCN(C(=O)c4cccnc4)CC3)cc12 [Example F27-S116, 3-methyl-5-(N-(2-(4-nicotinoylpiperazin-1-yl)phenyl)-N-phenethylsulfamoyl)benzofuran-2-carboxylic acid]",0.1 to 10
11,"Cc1c(C(=O)O)oc2ccc(S(=O)(=O)N(CCc3ccccc3)c3ccccc3N3CCN(C(=O)c4ccccn4)CC3)cc12 [Example F27-S117, 3-methyl-5-(N-phenethyl-N-(2-(4-pyridinecarbonylpiperazin-1-yl)phenyl)sulfamoyl)benzofuran-2-carboxylic acid]",0.1 to 10
12,"Cc1c(C(=O)O)oc2ccc(S(=O)(=O)N(CCc3ccccc3)c3ccccc3N3CCN(C(=O)c4cccs4)CC3)cc12 [Example F27-S118, 3-methyl-5-(N-phenethyl-N-(2-(4-(thiophene-2-carbonyl)piperazin-1-yl)phenyl)sulfamoyl)benzofuran-2-carboxylic acid]",0.1 to 10
13,"Cc1c(C(=O)O)oc2ccc(S(=O)(=O)N(CCc3ccccc3)c3ccccc3N3CCN(C(=O)c4ccsc4)CC3)cc12 [Example F27-S119, 3-methyl-5-(N-phenethyl-N-(2-(4-(thiophene-3-carbonyl)piperazin-1-yl)phenyl)sulfamoyl)benzofuran-2-carboxylic acid]",0.1 to 10
